Experimental data reported in ChEMBL document CHEMBL3994677, “Discovery of GSK2193874: An Orally Active, Potent, and Selective Blocker of Transient Receptor Potential Vanilloid 4” (ACS Med Chem Lett, 2017).
pIC50: −log10 of the molar value. Activity calls are given as the source filed them. The rule behind the calls is not given here.

Key:
[1] = biological target: Transient receptor potential cation channel subfamily V member 4 (Homo sapiens, UniProt Q9HBA0); test: Antagonist activity at human TRPV4 expressed in HEK293 cells assessed as inhibition of GSK634775A-induced calcium influx preincubated for 10 mins followed by GSK634775A addition by […] dye based FLIPR assay; type: cell-based
Chain of Transient receptor potential cation channel subfamily V member 4 (Homo sapiens, UniProt Q9HBA0) (Q9HBA0 whole entry): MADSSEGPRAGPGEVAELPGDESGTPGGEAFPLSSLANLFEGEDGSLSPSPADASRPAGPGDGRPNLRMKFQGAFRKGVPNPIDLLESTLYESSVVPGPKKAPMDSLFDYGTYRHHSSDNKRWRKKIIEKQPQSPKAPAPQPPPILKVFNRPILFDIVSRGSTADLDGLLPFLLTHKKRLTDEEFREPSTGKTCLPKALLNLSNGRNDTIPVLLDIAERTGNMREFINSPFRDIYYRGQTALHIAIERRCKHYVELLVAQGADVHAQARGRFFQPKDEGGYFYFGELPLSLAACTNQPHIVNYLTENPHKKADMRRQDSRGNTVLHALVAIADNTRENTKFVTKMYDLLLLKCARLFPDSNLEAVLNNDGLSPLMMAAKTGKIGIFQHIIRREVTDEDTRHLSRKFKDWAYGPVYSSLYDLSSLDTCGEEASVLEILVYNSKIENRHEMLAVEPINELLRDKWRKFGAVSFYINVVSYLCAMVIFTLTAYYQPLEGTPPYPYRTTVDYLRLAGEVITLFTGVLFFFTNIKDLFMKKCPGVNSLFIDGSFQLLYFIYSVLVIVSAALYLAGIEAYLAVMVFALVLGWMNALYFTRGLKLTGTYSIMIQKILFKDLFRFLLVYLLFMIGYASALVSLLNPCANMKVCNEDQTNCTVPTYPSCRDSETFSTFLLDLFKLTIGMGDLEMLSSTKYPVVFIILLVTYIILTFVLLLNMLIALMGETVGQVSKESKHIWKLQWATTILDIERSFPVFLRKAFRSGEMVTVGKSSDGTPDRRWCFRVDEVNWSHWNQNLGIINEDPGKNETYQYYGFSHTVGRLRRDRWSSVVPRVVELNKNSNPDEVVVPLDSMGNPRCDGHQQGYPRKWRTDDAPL

[2] = biological target: Transient receptor potential cation channel subfamily V member 4 (Rattus norvegicus, UniProt Q9ERZ8); test: Antagonist activity at rat TRPV4 expressed in HEK293 cells assessed as inhibition of GSK634775A-induced calcium influx preincubated for 10 mins followed by GSK634775A addition by […] dye based FLIPR assay; type: cell-based
Chain of Transient receptor potential cation channel subfamily V member 4 (Rattus norvegicus, UniProt Q9ERZ8) (Q9ERZ8 whole entry): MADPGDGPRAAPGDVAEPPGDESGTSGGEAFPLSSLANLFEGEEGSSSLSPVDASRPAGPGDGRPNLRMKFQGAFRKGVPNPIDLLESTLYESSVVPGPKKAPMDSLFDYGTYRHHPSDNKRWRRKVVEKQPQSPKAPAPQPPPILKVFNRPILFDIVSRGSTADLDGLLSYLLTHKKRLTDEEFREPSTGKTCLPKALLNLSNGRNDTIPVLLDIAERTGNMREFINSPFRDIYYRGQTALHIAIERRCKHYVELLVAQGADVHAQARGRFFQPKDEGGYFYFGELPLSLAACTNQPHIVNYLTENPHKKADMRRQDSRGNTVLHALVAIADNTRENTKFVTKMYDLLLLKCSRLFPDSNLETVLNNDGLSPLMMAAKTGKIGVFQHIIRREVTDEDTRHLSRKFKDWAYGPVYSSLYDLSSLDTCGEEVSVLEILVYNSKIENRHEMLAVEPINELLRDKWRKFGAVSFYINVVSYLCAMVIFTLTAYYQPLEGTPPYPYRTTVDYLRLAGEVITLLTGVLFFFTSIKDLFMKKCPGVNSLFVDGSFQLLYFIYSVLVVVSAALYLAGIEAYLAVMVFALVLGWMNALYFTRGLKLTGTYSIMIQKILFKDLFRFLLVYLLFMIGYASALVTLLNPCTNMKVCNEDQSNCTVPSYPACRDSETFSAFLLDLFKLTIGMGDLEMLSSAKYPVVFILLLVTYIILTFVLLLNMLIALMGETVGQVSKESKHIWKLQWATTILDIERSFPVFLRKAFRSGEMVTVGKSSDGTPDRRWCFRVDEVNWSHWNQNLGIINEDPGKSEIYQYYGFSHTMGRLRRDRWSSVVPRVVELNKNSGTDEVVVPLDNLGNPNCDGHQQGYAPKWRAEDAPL

Substance-K receptor = Substance-K receptor (Homo sapiens, UniProt P21452); test: Inhibition of NK2 receptor (unknown origin) by FLIPR assay
Chain of Substance-K receptor (P21452 whole entry): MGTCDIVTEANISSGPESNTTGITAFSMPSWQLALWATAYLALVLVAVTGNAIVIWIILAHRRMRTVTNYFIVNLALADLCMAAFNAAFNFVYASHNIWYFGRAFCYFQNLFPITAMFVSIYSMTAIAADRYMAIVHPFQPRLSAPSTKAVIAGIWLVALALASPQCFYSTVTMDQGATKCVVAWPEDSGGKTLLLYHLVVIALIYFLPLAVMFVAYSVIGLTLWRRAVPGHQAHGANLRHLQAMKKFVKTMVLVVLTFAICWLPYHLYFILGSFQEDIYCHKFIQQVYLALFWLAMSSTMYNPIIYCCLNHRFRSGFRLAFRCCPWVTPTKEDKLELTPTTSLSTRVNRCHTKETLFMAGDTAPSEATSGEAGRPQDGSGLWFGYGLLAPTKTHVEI

Neuromedin-K receptor = Neuromedin-K receptor (Homo sapiens, UniProt P29371); test: Inhibition of NK3 receptor (unknown origin) by FLIPR assay
Chain of Neuromedin-K receptor (P29371 whole entry): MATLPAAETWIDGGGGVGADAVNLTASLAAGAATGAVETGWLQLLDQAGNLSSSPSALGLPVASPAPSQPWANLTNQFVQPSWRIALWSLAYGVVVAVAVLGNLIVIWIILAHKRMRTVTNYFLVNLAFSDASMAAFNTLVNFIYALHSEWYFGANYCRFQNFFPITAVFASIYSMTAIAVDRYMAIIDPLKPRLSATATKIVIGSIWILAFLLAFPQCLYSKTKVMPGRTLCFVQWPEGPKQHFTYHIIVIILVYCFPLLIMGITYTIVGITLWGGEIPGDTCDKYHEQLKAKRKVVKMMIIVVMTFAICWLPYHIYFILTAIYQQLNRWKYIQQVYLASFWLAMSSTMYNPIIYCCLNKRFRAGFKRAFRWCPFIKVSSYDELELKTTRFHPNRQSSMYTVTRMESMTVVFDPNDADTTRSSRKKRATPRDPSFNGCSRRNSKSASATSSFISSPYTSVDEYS

[3] = Clearance in Sprague-Dawley rat; type: ADME; details: in vivo
[4] = Oral bioavailability in Sprague-Dawley rat; type: ADME, organism-based; details: in vivo
Rattus norvegicus = test: Dose normalized AUC in po dosed Sprague-Dawley rat; type: ADME, organism-based; details: in vivo
[5] = biological target: Voltage-gated inwardly rectifying potassium channel KCNH2 (Homo sapiens, UniProt Q12809); test: Inhibition of human ERG by patchXpress electrophysiology assay
[6] = biological target: Voltage-dependent L-type calcium channel subunit alpha-1C (Homo sapiens, UniProt Q13936); test: Inhibition of Cav1.2 (unknown origin) by patchXpress electrophysiology assay
[7] = biological target: Sodium channel protein type 5 subunit alpha (Homo sapiens, UniProt Q14524); test: Inhibition of Nav1.5 (unknown origin) by ionworks quattro electrophysiology assay
Canis familiaris [8] = test: Toxicity in Beagle dog assessed as QTc prolongation at 1 to 3 mg/kg, iv administered as infusion; type: organism-based, Canis lupus familiaris; details: in vivo
Canis familiaris [9] = test: Toxicity in Beagle dog assessed as reduction in BP at 3 mg/kg, iv administered as infusion; type: organism-based, Canis lupus familiaris; details: in vivo
Canis familiaris [10] = test: Toxicity in Beagle dog assessed as reduction in heart rate at 3 mg/kg, iv administered as infusion; type: organism-based, Canis lupus familiaris; details: in vivo
Canis familiaris [11] = test: Toxicity in Beagle dog assessed as effect on cardiac output at 3 mg/kg, iv administered as infusion; type: organism-based, Canis lupus familiaris; details: in vivo
Canis familiaris [12] = test: Toxicity in Beagle dog assessed as effect on LV function at 3 mg/kg, iv administered as infusion; type: organism-based, Canis lupus familiaris; details: in vivo
[13] = Cmax in Beagle dog at 3 mg/kg, iv administered as infusion; type: ADME, organism-based, Canis lupus familiaris; parameters: dose 3 mg/kg, route intravenous; details: in vivo
Canis familiaris [14] = test: Toxicity in Beagle dog assessed as hemodynamic effect at 1 mg/kg, iv administered as infusion; type: organism-based, Canis lupus familiaris; details: in vivo
[15] = Cmax in Beagle dog at 1 mg/kg, iv administered as infusion; type: ADME, organism-based, Canis lupus familiaris; parameters: dose 1 mg/kg, route intravenous; details: in vivo
Plasma = test: Terminal plasma concentration in TRPV4 knockout Balb/c mouse at 30 mg/kg, iv administered as infusion; type: ADME, organism-based; details: in vivo, read-out: Cp(T)
Mus musculus [16] = test: Toxicity in TRPV4 knockout Balb/c mouse assessed as reduction in BP at 30 mg/kg, iv administered as infusion; type: organism-based; details: in vivo
Mus musculus [17] = test: Toxicity in TRPV4 knockout Balb/c mouse assessed as reduction in heart rate at 30 mg/kg, iv administered as infusion; type: organism-based; details: in vivo
[18] = biological target: T1, Voltage-dependent L-type calcium channel subunit alpha-1C (Cavia porcellus, UniProt O35505); test: Inhibition of Cav1.2 in guinea pig ventricular myocytes assessed as decrease in current amplitude at 0.1 Hz by patch clamp method; type: cell-based
T1 sequence (O35505 whole entry): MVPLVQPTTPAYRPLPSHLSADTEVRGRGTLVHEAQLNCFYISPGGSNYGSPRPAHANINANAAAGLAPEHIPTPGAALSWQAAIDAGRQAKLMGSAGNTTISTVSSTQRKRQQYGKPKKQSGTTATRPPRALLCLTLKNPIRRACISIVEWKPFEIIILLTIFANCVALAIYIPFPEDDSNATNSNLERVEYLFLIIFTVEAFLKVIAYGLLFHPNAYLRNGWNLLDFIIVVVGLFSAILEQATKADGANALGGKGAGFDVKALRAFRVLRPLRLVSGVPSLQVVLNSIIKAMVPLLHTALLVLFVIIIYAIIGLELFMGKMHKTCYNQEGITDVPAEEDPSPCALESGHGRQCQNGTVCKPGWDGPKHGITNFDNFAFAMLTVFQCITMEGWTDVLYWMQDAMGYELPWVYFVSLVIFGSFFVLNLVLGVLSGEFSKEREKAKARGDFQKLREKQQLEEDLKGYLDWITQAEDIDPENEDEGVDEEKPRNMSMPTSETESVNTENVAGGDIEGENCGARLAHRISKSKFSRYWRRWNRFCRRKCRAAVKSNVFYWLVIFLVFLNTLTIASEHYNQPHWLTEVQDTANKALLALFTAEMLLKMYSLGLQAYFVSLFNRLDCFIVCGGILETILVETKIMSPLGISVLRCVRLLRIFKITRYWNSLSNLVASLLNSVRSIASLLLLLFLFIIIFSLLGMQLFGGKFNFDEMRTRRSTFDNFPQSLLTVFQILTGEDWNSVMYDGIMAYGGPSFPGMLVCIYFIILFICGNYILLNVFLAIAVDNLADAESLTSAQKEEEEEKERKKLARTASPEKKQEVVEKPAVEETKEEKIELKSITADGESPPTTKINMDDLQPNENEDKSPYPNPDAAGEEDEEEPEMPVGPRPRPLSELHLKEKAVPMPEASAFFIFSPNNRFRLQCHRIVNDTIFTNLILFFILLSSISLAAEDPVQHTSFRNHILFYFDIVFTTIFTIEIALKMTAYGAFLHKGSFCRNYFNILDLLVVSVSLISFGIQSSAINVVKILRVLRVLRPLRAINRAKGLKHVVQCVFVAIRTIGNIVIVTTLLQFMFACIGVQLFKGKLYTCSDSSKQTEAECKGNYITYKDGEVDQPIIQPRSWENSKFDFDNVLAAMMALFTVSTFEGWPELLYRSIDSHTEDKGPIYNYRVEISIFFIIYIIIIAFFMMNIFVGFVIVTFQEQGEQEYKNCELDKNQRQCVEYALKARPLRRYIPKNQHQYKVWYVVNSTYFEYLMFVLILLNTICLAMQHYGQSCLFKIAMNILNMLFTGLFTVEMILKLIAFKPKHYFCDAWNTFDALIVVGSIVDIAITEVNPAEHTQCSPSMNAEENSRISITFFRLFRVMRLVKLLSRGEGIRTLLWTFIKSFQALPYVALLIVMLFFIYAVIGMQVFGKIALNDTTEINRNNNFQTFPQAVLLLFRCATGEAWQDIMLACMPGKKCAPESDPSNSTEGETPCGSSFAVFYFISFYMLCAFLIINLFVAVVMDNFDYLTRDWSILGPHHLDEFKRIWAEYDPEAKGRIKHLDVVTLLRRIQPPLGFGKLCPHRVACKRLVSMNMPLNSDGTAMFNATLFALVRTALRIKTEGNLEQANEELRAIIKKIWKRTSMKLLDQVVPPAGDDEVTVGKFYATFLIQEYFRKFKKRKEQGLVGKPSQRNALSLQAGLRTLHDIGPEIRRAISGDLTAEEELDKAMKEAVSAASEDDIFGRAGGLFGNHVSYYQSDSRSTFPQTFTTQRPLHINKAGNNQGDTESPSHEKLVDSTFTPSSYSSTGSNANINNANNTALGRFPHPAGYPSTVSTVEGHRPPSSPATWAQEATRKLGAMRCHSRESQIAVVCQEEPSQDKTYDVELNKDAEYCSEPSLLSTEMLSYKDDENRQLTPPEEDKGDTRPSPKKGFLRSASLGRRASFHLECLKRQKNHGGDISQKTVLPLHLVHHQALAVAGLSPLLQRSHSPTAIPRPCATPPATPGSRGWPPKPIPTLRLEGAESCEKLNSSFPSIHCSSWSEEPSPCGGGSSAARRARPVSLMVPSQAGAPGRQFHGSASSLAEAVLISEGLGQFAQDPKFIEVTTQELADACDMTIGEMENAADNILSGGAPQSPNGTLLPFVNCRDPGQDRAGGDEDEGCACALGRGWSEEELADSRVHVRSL

[19] = biological target: T1, Voltage-dependent L-type calcium channel subunit alpha-1C; test: Inhibition of Cav1.2 in guinea pig ventricular myocytes assessed as decrease in current amplitude at 2 Hz by patch clamp method; type: cell-based
[20] = Cardiotoxicity in rabbit ventricular wedge; type: toxicity, Oryctolagus cuniculus
[21] = biological target: Voltage-dependent N-type calcium channel subunit alpha-1B (Homo sapiens) (UniProt Q00975); test: Inhibition of Cav2.2 (unknown origin)
[22] = biological target: Voltage-dependent T-type calcium channel subunit alpha-1H (Homo sapiens) (UniProt O95180); test: Inhibition of Cav3.2 (unknown origin)
Aorta = test: Toxicity in mouse isolated aorta assessed as effect on contractility; type: tissue-based; details: in vivo
[23] = Toxicity in mouse isolated right atria assessed as effect on contractility; parameters: species or system Right cardiac atrium; details: in vivo
Canis familiaris [24] = test: Unbound plasma concentration in Beagle dog at 3 mg/kg, iv administered as infusion; details: in vivo
Canis familiaris [25] = test: Unbound plasma concentration in Beagle dog at 1 mg/kg, iv administered as infusion; details: in vivo

With `C[C@H](NC(=O)c1c(CN2CCC(N(C)C)CC2)c(-c2cccc(C(F)(F)F)c2)nc2ccccc12)c1ccccc1` as the molecule, how does the pIC50 [1] read?
Its pIC50 is 5.60.

And the pIC50 [2]?
Its pIC50 is 6.49.

With `C[C@H](NC(=O)c1c(CN2CCC(N3CCOCC3)CC2)c(-c2cccc(C(F)(F)F)c2)nc2ccccc12)c1ccccc1` as the molecule, how does the pIC50 [1] read?
The pIC50 was 7.30.

What about the pIC50 [2] of the same molecule?
Its pIC50 is 8.40.

With `CC(C)(NC(=O)c1c(CN2CCC(N3CCCCC3)CC2)c(-c2cccc(C(F)(F)F)c2)nc2ccccc12)c1ccccc1` as the molecule, how does the pIC50 [1] read?
The pIC50 was 6.00.

What about the pIC50 [2] of the same molecule?
The pIC50 was 7.40.

Which results are given for `C[C@H](NC(=O)c1c(CN2CCC(N3CCCCC3)CC2)c(-c2cccc(Cl)c2)nc2ccccc12)c1ccccc1`?
pIC50 [1]: 6.70; pIC50 [2]: 8.10

With `C[C@H](NC(=O)c1c(CN2CCC(N3CCCCC3)CC2)c(-c2cccc(C(F)(F)F)c2)nc2ccccc12)c1ccccc1` as the molecule, how does the pIC50 [1] read?
The pIC50 was 7.10.

What about the pIC50 [2] of the same molecule?
Its pIC50 is 8.60.

And the pIC50 (Substance-K receptor)?
Its pIC50 is 5.89.

What about the pIC50 (Neuromedin-K receptor) of the same molecule?
The pIC50 was 5.60.

What about the clearance [3] of the same molecule?
The clearance was 1.5 L/h/kg.

And the bioavailability [4]?
The bioavailability was 100%.

And the AUC/dose (Rattus norvegicus)?
Its AUC/dose is 0.8 µg·h/mL/mg/kg.

What about the pIC50 [5] of the same molecule?
The pIC50 was 5.92.

And the pIC50 [6]?
The pIC50 was 5.35.

And the pIC50 [7]?
Its pIC50 is 4.40.

What about the Activity (Canis familiaris [8]) of the same molecule?
Its Activity is “Toxic”.

And the Activity (Canis familiaris [9])?
The Activity was “Toxic”.

And the Activity (Canis familiaris [10])?
The Activity was “Toxic”.

What about the Activity (Canis familiaris [11]) of the same molecule?
Its Activity is “Toxic”.

What about the Activity (Canis familiaris [12]) of the same molecule?
Its Activity is “Toxic”.

And the Cmax [13]?
The Cmax was 20 µM.

What about the Activity (Canis familiaris [14]) of the same molecule?
The Activity was “Non-Toxic”.

What about the Cmax [15] of the same molecule?
Its Cmax is 7 µM.

What about the concentration (Plasma) of the same molecule?
Its concentration is 10 to 11 µM.

What about the Activity (Mus musculus [16]) of the same molecule?
The Activity was “Toxic”.

And the Activity (Mus musculus [17])?
The Activity was “Toxic”.

What about the IC30 [18] of the same molecule?
Its IC30 is 1.7 µM.

What about the IC30 [19] of the same molecule?
The IC30 was 0.12 µM.

And the Activity [20]?
Its Activity is “Non-Toxic”.

What about the inhibition [21] of the same molecule?
The inhibition was “inactive”.

And the inhibition [22]?
Its inhibition is “inactive”.

What about the Activity (Aorta) of the same molecule?
Its Activity is “Non-Toxic”.

What about the Activity [23] of the same molecule?
The Activity was “Non-Toxic”.

What about the unbound plasma concentration (Canis familiaris [24]) of the same molecule?
The unbound plasma concentration was 0.94 µM.

What about the unbound plasma concentration (Canis familiaris [25]) of the same molecule?
The unbound plasma concentration was 0.3 µM.

With `C[C@H](NC(=O)c1c(CN2CCC(N3CCCCC3)CC2)c(-c2ccc(C(F)(F)F)cc2)nc2ccccc12)c1ccccc1` as the molecule, how does the pIC50 [1] read?
The pIC50 was 6.40.

What about the pIC50 [2] of the same molecule?
Its pIC50 is 7.80.

With `C[C@@H](NC(=O)c1c(CN2CCC(N3CCCCC3)CC2)c(-c2cccc(C(F)(F)F)c2)nc2ccccc12)c1ccccc1` as the molecule, how does the pIC50 [1] read?
Its pIC50 is 5.70.

What about the pIC50 [2] of the same molecule?
Its pIC50 is 6.40.

With `C[C@H](NC(=O)c1c(CN2CCC(C3CCCCC3)CC2)c(-c2cccc(C(F)(F)F)c2)nc2ccccc12)c1ccccc1` as the molecule, how does the pIC50 [1] read?
The pIC50 was less than 4.60.

And the pIC50 [2]?
The pIC50 was less than 4.60.

With `O=C(N[C@@H](c1ccccc1)C(F)(F)F)c1c(CN2CCC(N3CCCCC3)CC2)c(-c2cccc(C(F)(F)F)c2)nc2ccccc12` as the molecule, how does the pIC50 [1] read?
The pIC50 was 7.00.

And the pIC50 [2]?
Its pIC50 is 8.10.

With `COc1cccc(-c2nc3ccccc3c(C(=O)N[C@@H](C)c3ccccc3)c2CN2CCC(N3CCCCC3)CC2)c1` as the molecule, how does the pIC50 [1] read?
Its pIC50 is 5.40.

What about the pIC50 [2] of the same molecule?
Its pIC50 is 6.20.

With `C[C@H](NC(=O)c1c(CN2CCC(N3CCCCC3)CC2)c(-c2ccccc2)nc2ccccc12)c1ccccc1` as the molecule, how does the pIC50 [1] read?
Its pIC50 is 5.70.

What about the pIC50 [2] of the same molecule?
The pIC50 was 6.49.

And the pIC50 (Substance-K receptor)?
The pIC50 was 7.00.

And the pIC50 (Neuromedin-K receptor)?
Its pIC50 is 8.10.

And the clearance [3]?
The clearance was 3.12 L/h/kg.

With `O=C(N[C@H](c1ccccc1)C(F)(F)F)c1c(CN2CCC(N3CCCCC3)CC2)c(-c2cccc(C(F)(F)F)c2)nc2ccc(Br)cc12` as the molecule, how does the pIC50 [1] read?
Its pIC50 is 7.22.

What about the pIC50 [2] of the same molecule?
Its pIC50 is 8.60.

With `O=C(N[C@H](c1ccccc1)C(F)(F)F)c1c(CN2CCC(N3CCCCC3)CC2)c(-c2cccc(C(F)(F)F)c2)nc2ccccc12` as the molecule, how does the pIC50 [1] read?
The pIC50 was 7.40.

And the pIC50 [2]?
Its pIC50 is 8.60.

With `COc1ccc2c(C(=O)N[C@H](c3ccccc3)C(F)(F)F)c(CN3CCC(N4CCCCC4)CC3)c(-c3cccc(C(F)(F)F)c3)nc2c1` as the molecule, how does the pIC50 [1] read?
The pIC50 was 7.30.

What about the pIC50 [2] of the same molecule?
Its pIC50 is 8.40.

Which results are given for `CC[C@H](NC(=O)c1c(CN2CCC(N3CCCCC3)CC2)c(-c2cccc(C(F)(F)F)c2)nc2ccccc12)c1ccccc1`?
pIC50 [1]: 6.80; pIC50 [2]: 8.22

What does the source list for `Cc1ccc(-c2nc3ccccc3c(C(=O)N[C@@H](C)c3ccccc3)c2CN2CCC(N3CCCCC3)CC2)cc1`?
pIC50 [1]: 5.80; pIC50 [2]: 7.00
